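The compound was tested at five concentrations on cells cultured in 96-well plates, with a 48-hour exposure period. GI50: concentration for 50% inhibition of growth.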 Calls of active or inactive are those of the source. No stated cut-off is given here; in the data, active = GI50 up to about 1.1 µM and inactive = higher.
Experiments:
Assay in all cases: NCI tumour cell line growth inhibition, 48 h
786-0 = test system: 786-0
BT-549 = test system: BT-549
CCRF-CEM = test system: CCRF-CEM
COLO 205 = test system: COLO 205
DU-145 = test system: DU-145
HCT-15 = test system: HCT-15
HOP-62 = test system: HOP-62
HOP-92 = test system: HOP-92
K562 = test system: K562
MCF7 = test system: MCF7
MDA-MB-231 = test system: MDA-MB-231
Malme-3M = test system: Malme-3M
NCI-H23 = test system: NCI-H23
OVCAR-4 = test system: OVCAR-4
PC-3 = test system: PC-3
SK-MEL-5 = test system: SK-MEL-5
SNB-75 = test system: SNB-75
SW-620 = test system: SW-620
UACC-257 = test system: UACC-257
SF-539 = test system: SF-539

| SMILES | GI50 (786-0) | GI50 (BT-549) | GI50 (CCRF-CEM) | GI50 (COLO 205) | GI50 (DU-145) | GI50 (HCT-15) [µM] | GI50 (HOP-62) | GI50 (HOP-92) | GI50 (K562) | GI50 (MCF7) | GI50 (MDA-MB-231) | GI50 (Malme-3M) | GI50 (NCI-H23) | GI50 (OVCAR-4) | GI50 (PC-3) | GI50 (SK-MEL-5) | GI50 (SNB-75) | GI50 (SW-620) | GI50 (UACC-257) | GI50 (SF-539) |
| --- | --- | --- | --- | --- | --- | --- | --- | --- | --- | --- | --- | --- | --- | --- | --- | --- | --- | --- | --- | --- |
| CC(=O)OCC12CN(C#N)C3C4COC(CC41)C1(C(=O)N(C)c4ccccc41)C32 (configuration not stated) | 28.3 µM (inactive) | 2.64 µM (inactive) | 11.8 µM (inactive) | 16.7 µM (inactive) | 15.4 µM (inactive) | 17.1 | 24.6 µM (inactive) | 19.7 µM (inactive) | 14.8 µM (inactive) | 19.3 µM (inactive) | 13.4 µM (inactive) | 21 µM (inactive) | 15.6 µM (inactive) | 16.1 µM (inactive) | 33.2 µM (inactive) | 26.7 µM (inactive) | 26.5 µM (inactive) | 22 µM (inactive) | 16.9 µM (inactive) |  |
| Cc1n[nH]c(=O)n1/N=C/c1ccco1 | > 100 µM (inactive) | > 100 µM (inactive) | > 100 µM (inactive) | > 100 µM (inactive) | > 100 µM (inactive) | > 100 | > 100 µM (inactive) |  | > 100 µM (inactive) | > 100 µM (inactive) | > 100 µM (inactive) | > 100 µM (inactive) | > 100 µM (inactive) | > 100 µM (inactive) | > 100 µM (inactive) |  | > 100 µM (inactive) | > 100 µM (inactive) | > 100 µM (inactive) | > 100 µM (inactive) |
| Cc1ccn2c(CCc3nnc4cc(C)ccn34)nnc2c1 | > 100 µM (inactive) | > 100 µM (inactive) |  | > 100 µM (inactive) | > 100 µM (inactive) | > 100 | > 100 µM (inactive) | > 100 µM (inactive) |  | > 100 µM (inactive) | > 100 µM (inactive) | > 100 µM (inactive) | > 100 µM (inactive) | > 100 µM (inactive) | > 100 µM (inactive) | > 100 µM (inactive) | > 100 µM (inactive) | > 100 µM (inactive) | > 100 µM (inactive) | > 100 µM (inactive) |
| Cc1c(Cl)ccc2c(=O)c3cccc(CC(=O)O)c3oc12 | > 100 µM (inactive) | 38.5 µM (inactive) | > 100 µM (inactive) | > 100 µM (inactive) | > 100 µM (inactive) | > 100 | > 100 µM (inactive) | > 100 µM (inactive) | > 100 µM (inactive) | 35.6 µM (inactive) | > 100 µM (inactive) | > 100 µM (inactive) | > 100 µM (inactive) | > 100 µM (inactive) | > 100 µM (inactive) | > 100 µM (inactive) |  | > 100 µM (inactive) | > 100 µM (inactive) | > 100 µM (inactive) |
| CC1(C)OCC(COC(=O)C=[N+]=[N-])O1 (configuration not stated) | > 100 µM (inactive) | > 100 µM (inactive) | > 100 µM (inactive) | > 100 µM (inactive) | > 100 µM (inactive) | > 100 | 79.8 µM (inactive) | 14.9 µM (inactive) | > 10 µM (inactive) | 46.5 µM (inactive) | > 100 µM (inactive) | > 100 µM (inactive) | > 100 µM (inactive) | > 100 µM (inactive) | > 100 µM (inactive) | > 100 µM (inactive) |  | > 100 µM (inactive) | > 100 µM (inactive) |  |
| [N-]=[N+]=C(C(=O)C(=[N+]=[N-])C(=O)c1ccccc1)C(=O)c1ccccc1 | > 100 µM (inactive) | > 100 µM (inactive) |  | > 100 µM (inactive) | > 100 µM (inactive) | > 100 | > 100 µM (inactive) |  | > 100 µM (inactive) | > 100 µM (inactive) | > 100 µM (inactive) | > 100 µM (inactive) | > 100 µM (inactive) |  | > 100 µM (inactive) | > 100 µM (inactive) | > 100 µM (inactive) | > 100 µM (inactive) | > 100 µM (inactive) | > 100 µM (inactive) |
| CC1NCCC(CC(=O)O)C1CC(=O)O (configuration not stated) | > 100 µM (inactive) | > 100 µM (inactive) | > 100 µM (inactive) | > 100 µM (inactive) | > 100 µM (inactive) | > 100 | > 100 µM (inactive) | > 100 µM (inactive) | > 100 µM (inactive) | > 100 µM (inactive) | > 100 µM (inactive) | > 100 µM (inactive) | > 100 µM (inactive) | > 100 µM (inactive) | > 100 µM (inactive) | > 100 µM (inactive) | 97.9 µM (inactive) | > 100 µM (inactive) | > 100 µM (inactive) |  |
| CCNC1=C(NC(=O)c2ccccc2)C(=O)c2ccccc2C1=O | > 100 µM (inactive) | 90.4 µM (inactive) | 70.1 µM (inactive) | 16.6 µM (inactive) | 57 µM (inactive) | 18.5 | 66.2 µM (inactive) | 55.6 µM (inactive) | 45.4 µM (inactive) | 32.1 µM (inactive) | 6.12 µM (inactive) | 16.8 µM (inactive) | 36.7 µM (inactive) | 81.3 µM (inactive) | 18.2 µM (inactive) | > 10 µM (inactive) |  | 23.4 µM (inactive) | 23.4 µM (inactive) | 48.8 µM (inactive) |

Reference: ChEMBL document CHEMBL1201862, “PubChem BioAssay data set” (2004)
